# Laboratory results: PubChem BioAssay (NCI)
#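 Interpolation was linear, between the two tested concentrations surrounding the appropriate level; five concentrations were tested over 48 hours in 96-well plates. GI50 marks 50% less growth. The concentration for full growth arrest is given as TGI.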
# What was measured:
# Assay in all cases: DTP human tumour cell line panel, 48 h
# 786-0 renal = test system: 786-0 renal
# A498 renal = test system: A498 renal
# A549 NSCLC = test system: A549 NSCLC
# ACHN renal = test system: ACHN renal
# BT-549 breast = test system: BT-549 breast
# CAKI-1 renal = test system: CAKI-1 renal
# CCRF-CEM leukemia = test system: CCRF-CEM leukemia
# COLO 205 colon = test system: COLO 205 colon
# DU-145 prostate = test system: DU-145 prostate
# EKVX NSCLC = test system: EKVX NSCLC
# HCC-2998 colon = test system: HCC-2998 colon
# HCT-116 colon = test system: HCT-116 colon
# HCT-15 colon = test system: HCT-15 colon
# HL-60(TB) leukemia = test system: HL-60(TB) leukemia
# HOP-62 NSCLC = test system: HOP-62 NSCLC
# HOP-92 NSCLC = test system: HOP-92 NSCLC
# HS 578T breast = test system: HS 578T breast
# HT29 colon = test system: HT29 colon
# IGROV1 ovarian = test system: IGROV1 ovarian
# K-562 leukemia = test system: K-562 leukemia
# KM12 colon = test system: KM12 colon
# LOX IMVI melanoma = test system: LOX IMVI melanoma
# M14 melanoma = test system: M14 melanoma
# MALME-3M melanoma = test system: MALME-3M melanoma
# MCF7 breast = test system: MCF7 breast
# MDA-MB-231 breast = test system: MDA-MB-231 breast
# MDA-MB-435 = test system: MDA-MB-435
# MDA-MB-468 breast = test system: MDA-MB-468 breast
# MOLT-4 leukemia = test system: MOLT-4 leukemia
# NCI-H226 lung = test system: NCI-H226 lung
# NCI-H23 lung = test system: NCI-H23 lung
# NCI-H460 lung = test system: NCI-H460 lung
# NCI-H522 lung = test system: NCI-H522 lung
# NCI/ADR-RES ovarian = test system: NCI/ADR-RES ovarian
# OVCAR-3 ovarian = test system: OVCAR-3 ovarian
# OVCAR-4 ovarian = test system: OVCAR-4 ovarian
# OVCAR-5 ovarian = test system: OVCAR-5 ovarian
# OVCAR-8 ovarian = test system: OVCAR-8 ovarian
# PC-3 prostate = test system: PC-3 prostate
# RPMI-8226 leukemia = test system: RPMI-8226 leukemia
# RXF 393 renal = test system: RXF 393 renal
# SF-268 CNS = test system: SF-268 CNS
# SF-295 CNS = test system: SF-295 CNS
# SF-539 CNS = test system: SF-539 CNS
# SK-MEL-2 melanoma = test system: SK-MEL-2 melanoma
# SK-MEL-28 melanoma = test system: SK-MEL-28 melanoma
# SK-MEL-5 melanoma = test system: SK-MEL-5 melanoma
# SK-OV-3 ovarian = test system: SK-OV-3 ovarian
# SN12C renal = test system: SN12C renal
# SNB-19 CNS = test system: SNB-19 CNS
# SNB-75 CNS = test system: SNB-75 CNS
# SR leukemia = test system: SR leukemia
# SW-620 colon = test system: SW-620 colon
# T-47D breast = test system: T-47D breast
# TK-10 renal = test system: TK-10 renal
# U251 CNS = test system: U251 CNS
# UACC-257 melanoma = test system: UACC-257 melanoma
# UACC-62 melanoma = test system: UACC-62 melanoma
# UO-31 renal = test system: UO-31 renal
compound,measurement,setting,value
O=C(N=Nc1c(O)[nH]c2ccc(Br)cc12)c1ccc2nc(-c3ccc(Cl)cc3)[nH]c2c1,GI50,786-0 renal,29.6 µM
same,TGI,786-0 renal,> 38 µM
same,GI50,A498 renal,> 38 µM
same,TGI,A498 renal,> 38 µM
same,GI50,A549 NSCLC,> 38 µM
same,TGI,A549 NSCLC,> 38 µM
same,GI50,ACHN renal,> 38 µM
same,TGI,ACHN renal,> 38 µM
same,GI50,BT-549 breast,> 38 µM
same,TGI,BT-549 breast,> 38 µM
same,GI50,CAKI-1 renal,> 38 µM
same,TGI,CAKI-1 renal,> 38 µM
same,GI50,CCRF-CEM leukemia,8.77 µM
same,TGI,CCRF-CEM leukemia,> 38 µM
same,GI50,COLO 205 colon,26.2 µM
same,TGI,COLO 205 colon,> 38 µM
same,GI50,DU-145 prostate,29.6 µM
same,TGI,DU-145 prostate,> 38 µM
same,GI50,EKVX NSCLC,> 38 µM
same,TGI,EKVX NSCLC,> 38 µM
same,GI50,HCC-2998 colon,32.6 µM
same,TGI,HCC-2998 colon,> 38 µM
same,GI50,HCT-116 colon,15.2 µM
same,TGI,HCT-116 colon,> 38 µM
same,GI50,HCT-15 colon,> 38 µM
same,TGI,HCT-15 colon,> 38 µM
same,GI50,HL-60(TB) leukemia,> 38 µM
same,TGI,HL-60(TB) leukemia,> 38 µM
same,GI50,HOP-62 NSCLC,> 38 µM
same,TGI,HOP-62 NSCLC,> 38 µM
same,GI50,HOP-92 NSCLC,> 38 µM
same,TGI,HOP-92 NSCLC,> 38 µM
same,GI50,HS 578T breast,> 38 µM
same,TGI,HS 578T breast,> 38 µM
same,GI50,HT29 colon,15.2 µM
same,TGI,HT29 colon,> 38 µM
same,GI50,IGROV1 ovarian,> 38 µM
same,TGI,IGROV1 ovarian,> 38 µM
same,GI50,K-562 leukemia,16.8 µM
same,TGI,K-562 leukemia,> 38 µM
same,GI50,KM12 colon,> 38 µM
same,TGI,KM12 colon,> 38 µM
same,GI50,LOX IMVI melanoma,11.3 µM
same,TGI,LOX IMVI melanoma,> 38 µM
same,GI50,M14 melanoma,> 38 µM
same,TGI,M14 melanoma,> 38 µM
same,GI50,MALME-3M melanoma,> 38 µM
same,TGI,MALME-3M melanoma,> 38 µM
same,GI50,MCF7 breast,8.14 µM
same,TGI,MCF7 breast,> 38 µM
same,GI50,MDA-MB-231 breast,> 38 µM
same,TGI,MDA-MB-231 breast,> 38 µM
same,GI50,MDA-MB-435,29.6 µM
same,TGI,MDA-MB-435,> 38 µM
same,GI50,MDA-MB-468 breast,8.03 µM
same,TGI,MDA-MB-468 breast,37.9 µM
same,GI50,MOLT-4 leukemia,11.1 µM
same,TGI,MOLT-4 leukemia,> 38 µM
same,GI50,NCI-H226 lung,> 38 µM
same,TGI,NCI-H226 lung,> 38 µM
same,GI50,NCI-H23 lung,34 µM
same,TGI,NCI-H23 lung,> 38 µM
same,GI50,NCI-H460 lung,21.7 µM
same,TGI,NCI-H460 lung,> 38 µM
same,GI50,NCI-H522 lung,> 38 µM
same,TGI,NCI-H522 lung,> 38 µM
same,GI50,NCI/ADR-RES ovarian,> 38 µM
same,TGI,NCI/ADR-RES ovarian,> 38 µM
same,GI50,OVCAR-3 ovarian,> 38 µM
same,TGI,OVCAR-3 ovarian,> 38 µM
same,GI50,OVCAR-4 ovarian,12 µM
same,TGI,OVCAR-4 ovarian,> 38 µM
same,GI50,OVCAR-5 ovarian,> 38 µM
same,TGI,OVCAR-5 ovarian,> 38 µM
same,GI50,OVCAR-8 ovarian,29.7 µM
same,TGI,OVCAR-8 ovarian,> 38 µM
same,GI50,PC-3 prostate,> 38 µM
same,TGI,PC-3 prostate,> 38 µM
same,GI50,RPMI-8226 leukemia,> 38 µM
same,TGI,RPMI-8226 leukemia,> 38 µM
same,GI50,RXF 393 renal,> 38 µM
same,TGI,RXF 393 renal,> 38 µM
same,GI50,SF-268 CNS,10.8 µM
same,TGI,SF-268 CNS,> 38 µM
same,GI50,SF-295 CNS,> 38 µM
same,TGI,SF-295 CNS,> 38 µM
same,GI50,SF-539 CNS,> 38 µM
same,TGI,SF-539 CNS,> 38 µM
same,GI50,SK-MEL-2 melanoma,> 38 µM
same,TGI,SK-MEL-2 melanoma,> 38 µM
same,GI50,SK-MEL-28 melanoma,> 38 µM
same,TGI,SK-MEL-28 melanoma,> 38 µM
same,GI50,SK-MEL-5 melanoma,> 38 µM
same,TGI,SK-MEL-5 melanoma,> 38 µM
same,GI50,SK-OV-3 ovarian,> 38 µM
same,TGI,SK-OV-3 ovarian,> 38 µM
same,GI50,SN12C renal,> 38 µM
same,TGI,SN12C renal,> 38 µM
same,GI50,SNB-19 CNS,17.1 µM
same,TGI,SNB-19 CNS,> 38 µM
same,GI50,SNB-75 CNS,8.44 µM
same,TGI,SNB-75 CNS,> 38 µM
same,GI50,SR leukemia,> 38 µM
same,TGI,SR leukemia,> 38 µM
same,GI50,SW-620 colon,14.5 µM
same,TGI,SW-620 colon,> 38 µM
same,GI50,T-47D breast,11.8 µM
same,TGI,T-47D breast,> 38 µM
same,GI50,TK-10 renal,> 38 µM
same,TGI,TK-10 renal,> 38 µM
same,GI50,U251 CNS,19.9 µM
same,TGI,U251 CNS,> 38 µM
same,GI50,UACC-257 melanoma,> 38 µM
same,TGI,UACC-257 melanoma,> 38 µM
same,GI50,UACC-62 melanoma,> 38 µM
same,TGI,UACC-62 melanoma,> 38 µM
same,GI50,UO-31 renal,> 38 µM
same,TGI,UO-31 renal,> 38 µM
